Reference: the supplement of paper PMC10307832

Experiments:
Experiment in all cases: relative viability (nuclei count vs DMSO), 5 days (fraction); higher = more cells survive
[1] = compound: CCOC(=O)CCNc1cc(N2CCc3ccccc3CC2)nc(-c2ccccn2)n1 [GSK-J4]
Outline: (§1)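 Lung cancer cell lines in 1536-well plates were kept overnight at 37 °C, then pinned with five library-drug doses (not always all listed) spaced by √10 on vehicle-anchored plates. After 5 days without medium change, cells were fixed, permeabilised and Hoechst-stained in one step, imaged at 4×, and nuclei were counted with MetaXpress. Viability is treated-well nuclei divided by vehicle-well nuclei, taken as the median over plates. Plates passed only with control CV below 25% and at least one doubling.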

[2] = compound: CN1CCC(CC1)OC2=CC(=C(C=C2)NC3=NC=C4C(=N3)N(C(=O)N4C)C5CCCC5)OC [AZ3146]
Outline: as §1

[3] = compound: CCOC(=O)CCNc1cc(N2CCc3ccccc3CC2)nc(-c2ccccn2)n1 [GSK-J4] + CC1(C)CCC(c2ccc(Cl)cc2)=C(CN2CCN(c3ccc(C(=O)NS(=O)(=O)c4ccc(N[C@H](CCN5CCOCC5)CSc5ccccc5)c(S(=O)(=O)C(F)(F)F)c4)cc3)CC2)C1 [Navitoclax] (partner 0.5 µM)
Outline: (§2)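 Relative viability divides the nuclei count in treated wells by that in vehicle wells. Lung cancer cell lines were seeded in 1536-well plates, dosed by pin tool the next day, and fixed and stained after 5 days in one step with final 0.05% Triton X-100, 1% formaldehyde and 1 ug/ml Hoechst. Dosing was a single drug or a fixed anchor-drug dose plus five library-drug doses (not always all listed) in √10 steps, and values are medians of duplicate plates imaged at 4×.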

[4] = compound: CN1CCC(CC1)OC2=CC(=C(C=C2)NC3=NC=C4C(=N3)N(C(=O)N4C)C5CCCC5)OC [AZ3146] + N=C(N)NC(=N)NCCc1ccccc1 [Phenformin] (partner 250 µM)
Outline: as §2

Cell Line	relative viability ([1]; 0.5 µM)	relative viability ([1]; 1.581 µM)	relative viability ([1]; 5 µM)	relative viability ([1]; 15.81 µM)	relative viability ([1]; 50 µM)	relative viability ([2]; 0.08 µM)	relative viability ([2]; 0.253 µM)	relative viability ([2]; 0.8 µM)	relative viability ([2]; 2.53 µM)	relative viability ([2]; 8 µM)	relative viability ([3]; first compound 0.5 µM)	relative viability ([3]; first compound 1.581 µM)	relative viability ([3]; first compound 5 µM)	relative viability ([3]; first compound 15.81 µM)	relative viability ([3]; first compound 50 µM)	relative viability ([4]; first compound 0.08 µM)	relative viability ([4]; first compound 0.253 µM)	relative viability ([4]; first compound 0.8 µM)	relative viability ([4]; first compound 2.53 µM)	relative viability ([4]; first compound 8 µM)
LK-2	1.07	0.886	1.22	0.756	1	0.743	0.782	0.961	1.08	1.05	0.884	0.838	0.874	0.829	1.05	0.397	0.392	0.292	0.409	0.295
201T	1.01	0.983	0.928	0.947	0.943	0.997	0.993	0.941	0.964	0.983	1.19	1.28	1.25	1.21	1.16	0.448	0.446	0.438	0.424	0.455
HCC-827	1.01	0.902	0.839	1	1.02	1.04	0.998	0.987	0.939	1.04	1.02	0.991	1.06	1	0.994	0.443	0.372	0.401	0.416	0.348
HARA	1.06	0.959	–	0.881	1.05	0.808	0.902	1.01	1.07	0.866	1.16	0.827	–	1.15	0.916	0.384	0.415	0.436	0.41	0.404
NCI-H2087	0.96	0.824	0.82	1.04	0.856	0.877	1.08	1.03	1.2	0.917	0.795	1.08	–	0.99	0.758	0.382	0.54	0.406	0.46	0.471
NCI-H2405	1.07	0.945	–	0.943	0.987	1.08	0.87	0.999	1.12	1.11	0.835	0.848	–	0.952	0.928	0.4	0.309	0.304	0.373	0.366
NCI-H2170	1	0.89	0.893	0.916	0.969	0.959	0.991	0.994	1.01	0.96	0.585	0.547	0.678	0.44	0.48	0.352	0.434	0.338	0.364	0.357
NCI-H1793	1.06	0.786	0.727	0.48	0.443	0.902	0.805	0.812	1.07	0.691	0.389	0.473	0.379	0.307	0.273	0.473	0.286	0.339	0.35	0.213
NCI-H647	0.966	0.832	0.742	0.886	0.936	0.777	0.919	0.94	1.07	0.92	1.02	0.737	0.981	1.06	1.09	0.394	0.649	0.59	0.465	0.32
A549	0.981	0.731	0.862	0.838	0.924	0.852	0.988	1.03	0.952	0.462	1.08	1.15	1.24	1.24	1.2	–	0.153	0.168	0.131	0.0734
NCI-H596	1.04	0.833	0.92	0.889	0.903	0.985	0.841	0.931	0.979	0.963	1.02	0.955	1.1	0.846	0.977	0.672	0.738	0.722	0.735	0.797
EMC-BAC-2	0.971	0.909	0.647	0.882	0.955	0.772	0.76	1.07	1.1	0.907	1.17	1.07	1.24	1.04	1.13	0.413	0.465	0.53	0.533	0.478
SK-MES-1	0.965	0.937	0.932	0.928	0.783	1	0.985	1.07	0.991	0.95	1.13	1.03	1.25	1.01	0.857	0.661	0.649	0.61	0.635	0.518
H3255	0.997	0.869	0.91	0.811	0.854	0.935	0.902	1.01	1.09	0.981	0.474	0.494	0.543	0.368	0.444	0.352	0.419	0.313	0.377	0.338
NCI-H1651	0.986	0.856	0.973	0.948	0.96	0.902	0.879	0.968	0.952	1.02	0.999	0.942	1.03	1.05	0.958	0.31	0.316	0.345	0.34	0.313
NCI-H1395	1.05	0.893	0.827	0.964	0.81	0.958	0.879	0.86	0.985	0.85	1.31	1.08	0.896	1.05	0.898	0.394	0.45	0.379	0.423	0.445
